Results published in EP0830890A1, “Surfactants for use in liquid/supercritical CO2” (AIR PRODUCTS AND CHEMICALS, INC., priority 1996, dated 1998).

What was measured:
Assay type in all cases: physicochemical
[1] = Solubility in CO2 by cloud point determination in a variable volume view cell; design: unit not given here; conditions: Surfactant Concn. in CO2 0.2486 wt%; 65°C
[2] = as above; design: Pressure Describing Cloud Point Determinations For Surfactant/CO2 Concentrations / Pressure Describing Cloud Point Determinations For Surfactant/CO2Concentrations: unit not given here
Method: In the following examples, mixtures of acetylenic alcohols or diols and CO2 were prepared by adding the acetylenic alcohol or diol to a stainless steel variable volume view cell equiped with suitable relief devices, high pressure valves CO2 inlet and outlet and a sapphire window at one end. A high pressure syringe pump (High Pressure Products, HIP pump) was filled with liquid CO2 and used to quantitiatively add CO2 to the pressure vessel. The pressure vessel contained a magnetic stirrer and was stirred via a magnetic couple to a magnet located below the vessel.
A weighed amount of surfactant (0.5-10 weight %) was placed inside the cell chamber in front of the piston. The cell window was attached and 10 cc ? s of CO2, was added to the cell. The surfactant was mixed in the CO2 using a magnetic stirring bar. The cell was mounted in horizontally and then immersed in a water bath. After allowing the high pressure cell to attain thermal equilibrium the pressure within the cell was varied using a floating piston. The pressure was changed to monitor the cloud point as being indicative of insolubility. The operator viewed the floating piston through the sapphire window using a suitable optic device, the onset of insolubility was taken when the translucent solution changed to an orange/brown color due to the Tindall light scattering of the insoluble droplets. The onset of insolubility was checked several times by varying the pressure using the high pressure syringe pump.
A water bath was used to vary the temperature for each concentration. On completing the solubility studies at one concentration and one temperature series, a calibrated injector loop attached to the high pressure cell was filled with the surfactant via a syringe. Utilizing a six way valve to help inject this fixed amount of surfactant, the surfactant concentration within the high pressure cell was increased by a fixed increment. The solubility studies for this new CO2/surfactant concentration were measured at various temperatures in a similar manner to that previously described.

[3] = Interfacial tension of a PEG 600 drop in CO2/surfactant solution via pendant drop technique; conditions: PEG (600) drop, 2 weight % Surfynol/CO2 solution
From the text: Interfacial activity can be monitored using the 'pendant drop' technique, ("Chemistry of Interfaces" M.J.Jaycock & Parfitt, John Wiley and Sons, New York p49-51). This method is utilized to measure the interfacial tension between a pendant drop and a continuous phase that surrounds the drop. When carbon dioxide is used as the continuous media, special high pressure equipment with sapphire view ports is required to maintain a solution of CO2 and surfactant, and to study the change in shape of the pendant drop for interfacial tension calculations. A general procedure for these high pressure phase behavior measurements may be found in Langmuir, vol. 10 1994, pg 3536-3541, by K. Harrison, K. P. Johnston, J. Goveas and E. A. O ? Rear.
Various ethoxylates of 2,4,7,9-tetramethyl-5-decyn-4,7-diol were used in the interfacial tension study. Table 3 gives the interfacial tension observed for ethoxylates of 2,4,7,9-tetramethyl-5-decyn-4,7-diol containing 20, 40, and 65 wt% ethylene oxide. The table also gives the interfacial tension of the polyethyleneglycol (PEG 600)drop within the pure CO2 media. […] It is interesting to note the actual reduction in interfacial tension. For a control PEG 600 drop at 2510 psi the interfacial tension was measured to be 3.39 dyne/cm (run #5in Table 3). […] This corresponds to lowering the interfacial tension by 0.54 dyne/cm, a 16% reduction. A surfactant/CO2 solution of 2 weight % (using the 40 wt% ethoxylated Surfynol surfactant) gave an interfacial tension of 1.57 dyne/cm. at a CO2 pressure of 4030 psi (run #33in Table 3). The corresponding PEG drop at 4093psi used as the control gave an interfacial tension of 1.92dyne/cm (run #18 in Table 3).

- Pressure Describing Cloud Point Determinations For Surfactant/CO2Concentrations [1]: 2800
- Pressure Describing Cloud Point Determinations For Surfactant/CO2Concentrations ([2]; Surfactant Concn. in CO2 0.2486 wt%, 25°C): 1440
- Pressure Describing Cloud Point Determinations For Surfactant/CO2Concentrations ([2]; Surfactant Concn. in CO2 0.2486 wt%, 35°C): 1920
- Pressure Describing Cloud Point Determinations For Surfactant/CO2Concentrations ([2]; Surfactant Concn. in CO2 0.2486 wt%, 60°C): 2690
- Pressure Describing Cloud Point Determinations For Surfactant/CO2Concentrations ([2]; Surfactant Concn. in CO2 0.8867 wt%, 35°C): 4020
- Pressure Describing Cloud Point Determinations For Surfactant/CO2Concentrations ([2]; Surfactant Concn. in CO2 0.8867 wt%, 45°C): 4590
- Pressure Describing Cloud Point Determinations For Surfactant/CO2Concentrations ([2]; Surfactant Concn. in CO2 0.8867 wt%, 60°C): 5270
- Pressure Describing Cloud Point Determinations For Surfactant/CO2Concentrations ([2]; Surfactant Concn. in CO2 0.8867 wt%, 65°C): 5470
- CO2 solubility (in words) ([2]; in CO2): poor CO2 solubility
- Interfacial Tension IFT ([3]; 3599 psi (248 bar)): 1.95 dyne/cm
- Interfacial Tension IFT ([3]; 3628 psi (250 bar)): 1.99 dyne/cm
- Interfacial Tension IFT ([3]; 3995 psi (276 bar)): 1.73 dyne/cm
- Interfacial Tension IFT ([3]; 3998 psi (276 bar)): 1.66 dyne/cm
- Interfacial Tension IFT ([3]; 4505 psi (311 bar)): 1.51 dyne/cm
- Interfacial Tension IFT ([3]; 4508 psi (311 bar)): 1.57 dyne/cm
Substance: Ethoxylated 2,4,7,9-Tetramethyl-5-decyn-4,7-diol [AP-465]
